Data published in article PMC7355430, “Imunofan—RDKVYR Peptide—Stimulates Skin Cell Proliferation and Promotes Tissue Repair” (Molecules, 2020).
“And” between values parts separate entries of the source, which are not always exact repeats. Equal entries are not always repeated. Peptide text beside a SMILES is read from it.

How the values were obtained:
[1] = tested on: BALB/c mice; assay: Ear pinna injury, ear punch closure; type: in vivo, mouse
Experimental: Experiments were performed on 8–12 week-old female BALB/c (24 mice in total) and C57BL/6 mice (36 mice in total). All mice originated from the Centre for Experimental Medicine of the Medical University of Białystok, Poland, and were kept in the animal facility at the Nencki Institute of Experimental Biology throughout the course of the study. After delivery to the Nencki Institute animal facility, mice rested for at least two weeks for acclimatization before starting the experiment. Experiments were approved by the First Local Ethics Committee in Warsaw (permit No. 491/2013 and 542/2018). Animal experimentation was performed in accordance with EU directive 2010/63/EU, and all experiments were undertaken in such a way as to minimize discomfort and the number of animals used in the study.
Mice were placed individually in separate cages, weighed, and randomly divided into two groups within each mouse strain: The treatment group and the control group. Before the study all mice were randomly given numerical equivalents, and all experimenters performing further analysis were not aware of the experimental group and referred solely to those numbers. Similarly, vials containing IM (treatment) or saline (control) were encrypted and assigned to particular mice, so the person performing injections and ear photographs was not aware of mice background. Lastly, the person quantifying each ear hole closure was not aware of the group. Numerical equivalents of each mice were only decrypted at the end of the study. Before study each animal was anesthetized with Isoflurane (Iso-Vet; Piramal, UK), ears were quickly disinfected with 70% isopropanol and circular punches 2 mm in diameter were made in the center of both ear pinnae using disposable biopsy punches (Integra Miltex; Integra Life Sciences, Princeton, NJ, USA). Due to some occasional self-inflicted injuries (tearing off one or both ear lobes) during the course of the study, the measurement data from destroyed lobes were excluded from comparisons of the next time points. […]
To monitor the progress of wound healing, ears were photographed on the day of the injury (day 0, before and right after pinna injury), and on days 7, 14, 21, 28, 35, and 42. […] Finally, the area of the wound hole was outlined by hand on digitized images as an overlay, and the hole areas in the ears were evaluated using computer-assisted image analysis (ImageJ Software). […] The final number of analyzed ears was 23 per group on day 42. […] The final number of analyzed ears on day 42 was 32 in the control group and 16 in the treatment group. […]

[2] = Stability in human plasma; type: in vitro ADME; conditions: human plasma (EDTA)
Experimental: A stability test in plasma was performed as previously described. Blood was collected from healthy anonymous donors and EDTA was then used as an anticoagulant. The plasma was aliquoted and incubated with IM peptide for 1, 2, 3, 6, and 24 h at 37 °C, at a final concentration of 300 µM. The analyses were performed by HPLC applying the conditions specified above.
For calculations, peak areas were compared to a calibration curve calculated by LC solution Software (Shimadzu, Kyoto, Japan).

[3] = tested on: T47D breast cancer cells; assay: MTT proliferation test; type: cell-based; conditions: 48 or 72 h, RPMI-1640 with 10 % FBS; Mann Whitney U-test (Figure S11)
Experimental: (§1) Cancer cell prolifertion assay. Cell proliferation was determined by the MTT method. MTT test measures enzymatic activity, which is a marker of viable cells. Drop in amount of formazan informs that there is less metabolically active cells as compared with control (taken as 100%); however, it might be caused by cell cycle arrest (stopped or slowed proliferation) and/or cell death (which also may happen after prolonged incubation with tested compounds). T47D or MCF-7 breast cancer cells were cultured in RPMI-1640 supplemented with 10 % fetal bovine serum and 1 % penicillin/streptomycin solution. Cells were seeded, at a density of 2 x 10^3 per well, in a 96-well plate and allowed to attach overnight. The medium was replaced with fresh medium supplemented with desired concentrations of each investigated compound for 24, 48 or 72 h. Before the end of treatment, 25 µL of MTT solution (4 mg per ml-^1) were added to each well. After 3 h of incubation, medium was removed, and formazan crystals were dissolved in 100 µL of DMSO. Absorbance was measured at 570 nm (with reference wavelength 660 nm) in a Victor microplate reader. Data were obtained from at least three independent experiments performed in triplicate.

[4] = tested on: MCF-7 breast cancer cells; assay: MTT proliferation test; type: cell-based; conditions: 24, 48 or 72 h, RPMI-1640 with 10 % FBS; Mann Whitney U-test (Figure S12)
Experimental: as §1

[5] = tested on: 46BR.1N fibroblasts; assay: LDH cytotoxicity assay; type: cell-based, human; conditions: 50–150 µg/mL, 48 h, serum-free medium; n=16 (Figure S5)
Experimental: (§2) Cell death was quantified by measurement of lactate dehydrogenase activity in cell culture supernatants (Takara, Japan, cat. No. MK401), following the manufacturer’s instructions. Cells were seeded into 96-well plates (BD, cat.no. 353872), at a density of 5000 cells per well, in medium (DMEM) supplemented with 10% FBS. After 24 h, the medium was changed to serum-free medium containing appropriate concentrations of IM peptide. After 48 h of stimulation supernatants were collected for LDH analysis. Cell death was normalized with respect to untreated control (without IM). Non-IM treated cells were used as negative control (0%) and Triton-X 100 (1%) was used as the positive control for maximum LDH release (maximum cytotoxicity, 100%). The assay was performed to IM in concentrations of 50–150 µg/mL.

[6] = tested on: HaCaT keratinocytes; assay: LDH cytotoxicity assay; type: cell-based, human; conditions: 50–150 µg/mL, 48 h, serum-free medium; n=16 (Figure S5)
Experimental: as §2

CC(C)[C@H](NC(=O)[C@H](CCCCN)NC(=O)[C@H](CC(=O)O)NC(=O)[C@@H](N)CCCNC(=N)N)C(=O)N[C@@H](Cc1ccc(O)cc1)C(=O)N[C@@H](CCCNC(=N)N)C(=O)O [IM, H-Arg-Asp-Lys-Val-Tyr-Arg-OH] (H-RDKVYR-OH)
histology of the epidermis in healed ear pinna ([1]; 42 days after injury, hematoxylin and eosin): signs of parakeratosis
mean ear hole area ([1]; day 42 post-injury, 2 mm punch, s.c. 5.0 µg/g, 10 injections, mean ± SD, saline control 1.96 ± 0.48): 1.69 ± 0.38 mm^2
wound closure (ear hole closure) ([1]; day 42 post-injury, s.c. 5.0 µg/g, 10 injections, mean ± SD, saline control 37.9% ± 14.2%): 46.2% ± 12.2% and 46%
tissue repair in comparison to control ([1]; ear pinna injury, as summarised in the abstract): 8%
signal of the IM peptide in plasma after 1 h ([2]; 300 µM, 37 °C, 1 h, albumins removed with ethanol and centrifugation, HPLC C18, PDA, n=3 (Figure S1)): no longer seen
signal of the IM peptide in plasma at time point 0 h ([2]; mixture without incubation, whole sample preparation (ethanol, centrifugation), HPLC (Figure S2)): barely any signal of peptide
difference in proliferation from control (MTT) [3]: not statistically significant
difference in proliferation from control (MTT) [4]: not statistically significant
cytotoxicity (LDH release) [5]: not cytotoxic
cytotoxicity (LDH release) [6]: not cytotoxic
